In ChEMBL document CHEMBL5096217, “Design, synthesis and biological evaluation of novel 4-aminopiperidine derivatives as SMO/ERK dual inhibitors” (Bioorg Med Chem, 2022):

What was measured:
[1] = target: Protein smoothened (Mus musculus, UniProt P56726); assay: Inhibition of SMO in mouse 3T3/HH FlashII-7 cells incubated for 36 hrs in presence of SHH by Gli-luciferase reporter assay; type: cell-based
[2] = target: T1, Mitogen-activated protein kinase 1 (Homo sapiens, UniProt P28482); assay: Inhibition of ERK2 (unknown origin) using kinase substrate 8 at 100 nM incubated for 40 mins in presence of ATP by mobility shift assay
[3] = Antiproliferative activity against human RBE cells overexpressing Hh/ERK pathway assessed as inhibition of cell growth incubated for 96 hrs by CCK8 assay; type: functional, cell-based
[4] = Antiproliferative activity against human RBE cells overexpressing Hh/ERK pathway assessed as inhibition of cell growth incubated for 96 hrs by CCK8 assay relative to SCH772984; type: functional
[5] = target: T1, Mitogen-activated protein kinase 1; assay: Inhibition of ERK2 (unknown origin) using kinase substrate 8 incubated for 40 mins in presence of ATP by mobility shift assay
[6] = target: Protein smoothened (Mus musculus) (UniProt P56726); assay: Inhibition of SMO in mouse 3T3/HH FlashII-7 cells at 100 nM incubated for 36 hrs in presence of SHH by Gli-luciferase reporter assay; type: cell-based
Sequence of Protein smoothened (Mus musculus) (P56726 whole entry): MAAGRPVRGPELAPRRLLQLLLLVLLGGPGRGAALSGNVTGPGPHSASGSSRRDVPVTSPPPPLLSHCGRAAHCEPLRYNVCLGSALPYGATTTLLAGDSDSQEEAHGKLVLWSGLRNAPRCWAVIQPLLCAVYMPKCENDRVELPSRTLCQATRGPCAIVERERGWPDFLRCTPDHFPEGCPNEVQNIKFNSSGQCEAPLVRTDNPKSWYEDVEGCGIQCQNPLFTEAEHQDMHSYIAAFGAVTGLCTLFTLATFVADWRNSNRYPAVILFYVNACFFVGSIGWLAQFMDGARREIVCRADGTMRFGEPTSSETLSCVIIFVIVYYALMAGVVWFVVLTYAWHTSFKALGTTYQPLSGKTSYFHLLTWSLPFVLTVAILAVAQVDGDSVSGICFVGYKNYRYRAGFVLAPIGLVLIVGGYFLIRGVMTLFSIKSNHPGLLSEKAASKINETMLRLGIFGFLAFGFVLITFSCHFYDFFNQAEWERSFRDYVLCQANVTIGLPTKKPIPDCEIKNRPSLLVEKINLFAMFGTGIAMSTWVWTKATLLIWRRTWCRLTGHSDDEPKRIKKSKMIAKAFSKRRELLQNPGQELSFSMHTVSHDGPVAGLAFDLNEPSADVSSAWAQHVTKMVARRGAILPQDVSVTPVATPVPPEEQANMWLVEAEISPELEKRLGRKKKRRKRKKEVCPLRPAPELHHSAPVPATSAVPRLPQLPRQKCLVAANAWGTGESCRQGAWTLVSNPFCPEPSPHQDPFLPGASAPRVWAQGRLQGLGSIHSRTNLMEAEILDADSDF

T1 sequence (P28482 whole entry): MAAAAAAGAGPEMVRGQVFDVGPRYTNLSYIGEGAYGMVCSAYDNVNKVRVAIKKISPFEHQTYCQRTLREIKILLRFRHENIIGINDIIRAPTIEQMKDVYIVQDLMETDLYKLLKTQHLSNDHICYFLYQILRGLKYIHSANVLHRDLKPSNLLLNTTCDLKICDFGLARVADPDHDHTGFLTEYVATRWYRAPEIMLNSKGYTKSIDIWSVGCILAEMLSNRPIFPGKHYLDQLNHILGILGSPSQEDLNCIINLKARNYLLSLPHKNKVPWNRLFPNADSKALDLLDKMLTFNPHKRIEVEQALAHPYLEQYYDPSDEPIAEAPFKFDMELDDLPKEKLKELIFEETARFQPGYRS
Sequence of Protein smoothened (P56726 whole entry): as the sequence (P56726 whole entry) above

Row | SMILES | IC50 [1] [nM] | inhibition [2] [%] | IC50 [3] [nM] | fold change (FC) [4] | IC50 [5] [nM] | inhibition [6] [%]
1 | Cc1c(-c2ccnn2C)nnc(N2CCC(NC(=O)Nc3ccc(Sc4nc(NC5CCOCC5)ncc4Cl)cc3)CC2)c1C | 17.6 | 91.2 | 2170 | 1.33 | – | –
2 | Cc1c(-c2ccnn2C)nnc(N2CCC(NC(=O)Nc3ccc(Sc4nc(NC5CCOCC5)ncc4C(F)(F)F)cc3)CC2)c1C | 155 | 84.2 | 1450 | 0.89 | – | –
3 | Cc1c(-c2cnn(C)c2)nnc(N2CCC(NC(=O)Nc3ccc(Oc4nc(NC5CCOCC5)ncc4Cl)cc3)CC2)c1C | 409 | – | – | – | 41 | –
4 | Cc1c(-c2ccnn2C)nnc(N2CCC(NC(=O)Nc3ccc(Oc4nc(NC(C)C)ncc4Cl)cc3)CC2)c1C | – | 5.6 | – | – | – | –
5 | Cn1nccc1-c1ccc(N2CCC(NC(=O)Nc3ccc(Oc4nc(NC5CCOCC5)ncc4Cl)cc3)CC2)nn1 | – | 46.4 | – | – | – | 68.5
6 | Cc1c(-c2ccnn2C)nnc(N2CCC(NC(=O)c3ccc(NC(=O)c4ccnc(NC5CCOCC5)n4)cc3C(F)(F)F)CC2)c1C | – | – | – | – | 3320 | 68.2
7 | O=C(Nc1ccc2[nH]nc(-c3ccncc3)c2c1)[C@@H]1CCN(CC(=O)N2CCN(c3ccc(-c4ncccn4)cc3)CC2)C1 | – | – | 1630 | – | – | –
8 | Cc1c(-c2ccnn2C)nnc(N2CCC(NC(=O)Nc3ccc(Nc4nc(NC5CCOCC5)ncc4Cl)cc3)CC2)c1C | 63.9 | 36.9 | – | – | – | –
9 | Cc1c(-c2ccnn2C)nnc(N2CCC(NC(=O)Nc3ccc(Oc4nc(NC5CCOCC5)ncc4C(F)(F)F)cc3)CC2)c1C | 190 | 85 | – | – | – | –
10 | Cc1c(-c2ccnn2C)nnc(N2CCC(NC(=O)Nc3ccc(Oc4nc(Nc5cnn(C)c5)ncc4Cl)cc3)CC2)c1C | 17.8 | 46 | – | – | – | –
11 | Cc1c(-c2ccnn2C)nnc(N2CCC(NC(=O)Nc3ccc(Oc4ccnc(NC5CCOCC5)n4)cc3)CC2)c1C | – | – | – | – | 1320 | 90.4
12 | Cc1c(-c2ccnn2C)nnc(N2CCC(NC(=O)Nc3ccc(Oc4nc(Nc5ccnn5C)ncc4Cl)cc3)CC2)c1C | – | 1.1 | – | – | – | –
13 | Cc1c(-c2ccnn2C)nnc(N2CCC(NC(=O)Nc3ccc(Oc4nc(Nc5ccn(C)n5)ncc4Cl)cc3)CC2)c1C | – | 6.6 | – | – | – | –
14 | Cc1c(-c2ccnn2C)nnc(N2CCC(NC(=O)Nc3ccc(Oc4nc(NC5CCOCC5)ncc4Cl)cc3)CC2)c1C | – | 80.9 | 12300 | 7.59 | – | 89.9
15 | Cn1cc(-c2ccc(N3CCC(NC(=O)Nc4ccc(Oc5nc(NC6CCOCC6)ncc5Cl)cc4)CC3)nn2)cn1 | > 1000 | – | – | – | 164 | –
16 | Cc1cnc(NC2CCOCC2)nc1Oc1ccc(NC(=O)NC2CCN(c3nnc(-c4ccnn4C)c(C)c3C)CC2)cc1 | 150 | 60.7 | – | – | – | –
17 | CN(C(=O)c1ccc(F)cc1C(F)(F)F)C1CCN(c2nnc(-c3ccnn3C)c3ccccc23)CC1 [TALADEGIB] | 1.18 | – | > 50000 | – | – | –
